The IC50 is the concentration that inhibits the measured activity by half.

A short description of the assay: Binding affinity to SafBP receptor in Zea mays (maize) seedlings by [3H]Saf(R-29148) binding assay.
Consider `CC1(C(Cl)Cl)OCCO1`, for which the IC50 amounted to 4.4 µM. With `CC1CN(C(=O)C(Cl)Cl)C(C)(C)O1` (centres undefined) the figure was 0.12 µM. The molecule `O=C(C(Cl)Cl)N1CCOC12CCCCC2` displayed an IC50 of 6 µM. Next, `C=CCN(CC=C)C(=O)C(Cl)Cl` [DICHLORMID]: 0.01 µM.

Values taken from ChEMBL document CHEMBL3045520, “Comparative three-dimensional quantitative structure-activity relationship study of safeners and herbicides” (J Agric Food Chem, 2000).
